Data as given in ChEMBL document CHEMBL4052741, “Macrocyclic inhibitors of Factor XIa: Discovery of alkyl-substituted macrocyclic amide linkers with improved potency” (Bioorg Med Chem Lett, 2017).

What was measured:
Plasma = assay: Anticoagulant activity in human platelet rich plasma assessed as plasma concentration required for 50% increase in clotting time by aPTT assay; format: functional
Coagulation factor XI = Coagulation factor XI (Homo sapiens, UniProt P03951); assay: Inhibition of human Factor XIa using S-2366 as chromogenic substrate after 60 mins by Lineweaver-Burk plot analysis
Chain of Coagulation factor XI (P03951 19-387 limits assumed): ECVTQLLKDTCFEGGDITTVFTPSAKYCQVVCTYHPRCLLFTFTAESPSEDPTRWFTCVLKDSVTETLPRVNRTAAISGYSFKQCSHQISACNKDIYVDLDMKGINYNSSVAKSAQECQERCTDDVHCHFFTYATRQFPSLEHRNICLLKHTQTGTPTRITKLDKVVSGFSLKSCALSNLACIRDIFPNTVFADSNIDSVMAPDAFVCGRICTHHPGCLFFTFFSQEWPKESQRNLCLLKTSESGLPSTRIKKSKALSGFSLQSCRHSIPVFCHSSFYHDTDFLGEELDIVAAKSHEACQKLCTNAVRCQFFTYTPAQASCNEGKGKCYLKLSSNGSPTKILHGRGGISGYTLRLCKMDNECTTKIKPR
Chain of Coagulation factor XI (P03951 388-625 limits assumed): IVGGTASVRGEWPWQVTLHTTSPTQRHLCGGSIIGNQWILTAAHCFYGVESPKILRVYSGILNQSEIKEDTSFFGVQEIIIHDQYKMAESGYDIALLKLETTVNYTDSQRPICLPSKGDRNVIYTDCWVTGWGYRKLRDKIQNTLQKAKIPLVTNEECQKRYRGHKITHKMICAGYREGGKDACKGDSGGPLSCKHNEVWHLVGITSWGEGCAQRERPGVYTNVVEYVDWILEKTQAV

[1] = Permeability of the compound from basolateral to apical side in human Caco2 cells; format: ADME, cell-based; conditions: Caco-2, read-out: permeability
[2] = Half life in human liver microsomes; format: ADME, microsome
[3] = Permeability of the compound from apical to basolateral side in human Caco2 cells; format: ADME, cell-based; conditions: Caco-2, read-out: permeability
[4] = Protein binding in human plasma; format: ADME, cell-free; conditions: read-out: PPB (converted)
[5] = AUC in Sprague-Dawley rat at 0.55 mg/kg, iv or 1.09 mg/kg, po by LC-MS/MS analysis; format: ADME, organism-based; conditions: in vivo
[6] = Oral bioavailability in Sprague-Dawley rat at 1.09 mg/kg administered as cassette dose by LC-MS/MS analysis; format: ADME, organism-based; conditions: in vivo
[7] = Volume of distribution at steady state in Sprague-Dawley rat at 0.55 mg/kg, iv or 1.09 mg/kg, po administered as cassette dose by LC-MS/MS analysis; format: ADME, organism-based; conditions: in vivo, read-out: Vdss
[8] = Half life in Sprague-Dawley rat at 0.55 mg/kg, iv or 1.09 mg/kg, po administered as cassette dose by LC-MS/MS analysis; format: ADME, organism-based; conditions: in vivo
[9] = Clearance in Sprague-Dawley rat at 0.55 mg/kg, iv or 1.09 mg/kg, po administered as cassette dose by LC-MS/MS analysis; format: ADME, organism-based; conditions: in vivo
[10] = Volume of distribution at steady state in Sprague-Dawley rat at 0.75 mg/kg, iv or 1.5 mg/kg, po administered as cassette dose by LC-MS/MS analysis; format: ADME, organism-based; conditions: in vivo, read-out: Vdss
[11] = Half life in Sprague-Dawley rat at 0.75 mg/kg, iv or 1.5 mg/kg, po administered as cassette dose by LC-MS/MS analysis; format: ADME, organism-based; conditions: in vivo
[12] = Oral bioavailability in Sprague-Dawley rat at 1.5 mg/kg by LC-MS/MS analysis; format: ADME, organism-based; conditions: in vivo
[13] = AUC in Sprague-Dawley rat at 0.75 mg/kg, iv or 1.5 mg/kg, po by LC-MS/MS analysis; format: ADME, organism-based; conditions: in vivo
[14] = Clearance in Sprague-Dawley rat at 0.75 mg/kg, iv or 1.5 mg/kg, po administered as cassette dose by LC-MS/MS analysis; format: ADME, organism-based; conditions: in vivo
[15] = AUC in Sprague-Dawley rat at 0.55 mg/kg, iv or 1.11 mg/kg, po by LC-MS/MS analysis; format: ADME, organism-based; conditions: in vivo
[16] = Volume of distribution at steady state in Sprague-Dawley rat at 0.55 mg/kg, iv or 1.11 mg/kg, po administered as cassette dose by LC-MS/MS analysis; format: ADME, organism-based; conditions: in vivo, read-out: Vdss
[17] = Half life in Sprague-Dawley rat at 0.55 mg/kg, iv or 1.11 mg/kg, po administered as cassette dose by LC-MS/MS analysis; format: ADME, organism-based; conditions: in vivo
[18] = Oral bioavailability in Sprague-Dawley rat at 1.11 mg/kg by LC-MS/MS analysis; format: ADME, organism-based; conditions: in vivo
[19] = Clearance in Sprague-Dawley rat at 0.55 mg/kg, iv or 1.11 mg/kg, po administered as cassette dose by LC-MS/MS analysis; format: ADME, organism-based; conditions: in vivo

SMILES	EC1.5 (Plasma) [µM]	Ki (Coagulation factor XI) [nM]	further results
CC[C@H]1CCC[C@H](NC(=O)/C=C/c2cc(Cl)ccc2-n2cnnn2)c2nc(c[nH]2)-c2ccc(NC(=O)OC)cc2NC1=O	4		
COC(=O)Nc1ccc2c(c1)NC(=O)[C@H](C)CCC[C@H](NC(=O)c1c(F)cc(C)cc1F)c1nc-2c(Cl)[nH]1	2	10	Papp B→A [1]: 11.1 ×10⁻⁶ cm/s; half-life [2]: 8 min; Papp A→B [3]: < 1.5 ×10⁻⁶ cm/s
COC(=O)Nc1ccc2c(c1)NC(=O)C[C@@H](C)CCC[C@H](NC(=O)/C=C/c1cc(Cl)ccc1-n1cnnn1)c1nc-2c[nH]1	1.1		fraction unbound [4]: 0.02
COC(=O)Nc1ccc2c(c1)NC(=O)[C@@H](C)CCC[C@H](NC(=O)/C=C/c1cc(Cl)ccc1-n1cnnn1)c1nc-2c[nH]1	0.63		
COC(=O)Nc1ccc2c(c1)NC(=O)CC/C=C/C[C@H](NC(=O)/C=C/c1cc(Cl)ccc1-n1cnnn1)c1nc-2c(Cl)[nH]1			AUC [5]: 0.002 µM·h; bioavailability [6]: 0.2%; Vd [7]: 0.4 L/kg; Papp B→A [1]: 5.8 ×10⁻⁶ cm/s; Papp A→B [3]: < 1.5 ×10⁻⁶ cm/s; half-life [8]: 42 min; clearance [9]: 24 mL/min/kg
COC(=O)Nc1ccc2c(c1)NC(=O)CC(C)CC[C@H](NC(=O)/C=C/c1cc(Cl)ccc1-n1cnnn1)c1nc-2c[nH]1 (single isomer, unassigned; diastereomer A)	37	36	
COC(=O)Nc1ccc2c(c1)NC(=O)C[C@@H](C)CCC[C@H](NC(=O)/C=C/c1cc(Cl)ccc1-n1cnnn1)c1nc-2c(Cl)[nH]1	0.57	0.06	
COC(=O)Nc1ccc2c(c1)NC(=O)[C@H](C)CCC[C@H](NC(=O)/C=C/c1cc(Cl)ccc1-n1cnnn1)c1nc-2c[nH]1	0.39		
COC(=O)Nc1ccc2c(c1)NC(=O)C(C)C/C=C/C[C@H](NC(=O)/C=C/c1cc(Cl)ccc1-n1cnnn1)c1nc-2c[nH]1 (single isomer, unassigned; diastereomer A)	0.67	0.33	
COC(=O)Nc1ccc2c(c1)NC(=O)C[C@@H](C)/C=C/C[C@H](NC(=O)/C=C/c1cc(Cl)ccc1-n1cnnn1)c1nc-2c[nH]1	0.38	0.13	
COC(=O)Nc1ccc2c(c1)NC(=O)C[C@@H](C)CCC[C@H](NC(=O)c1c(F)cc(C)cc1F)c1nc-2c(Cl)[nH]1	12	44	Papp B→A [1]: 25.1 ×10⁻⁶ cm/s; half-life [2]: 45 min; Papp A→B [3]: 1.8 ×10⁻⁶ cm/s
COC(=O)Nc1ccc2c(c1)NC(=O)[C@@H](C(C)C)CCC[C@H](NC(=O)/C=C/c1cc(Cl)ccc1-n1cnnn1)c1nc-2c[nH]1	64	21	
COC(=O)Nc1ccc2c(c1)NC(=O)CCC(C)CC[C@H](NC(=O)/C=C/c1cc(Cl)ccc1-n1cnnn1)c1nc-2c[nH]1 (single isomer, unassigned; diastereomer A)	2.5	5.9	
COC(=O)Nc1ccc2c(c1)NC(=O)[C@H](C(C)C)CCC[C@H](NC(=O)/C=C/c1cc(Cl)ccc1-n1cnnn1)c1nc-2c[nH]1	1.1	0.14	
COC(=O)Nc1ccc2c(c1)NC(=O)[C@H](C)CCC[C@H](NC(=O)/C=C/c1cc(Cl)ccc1-n1cnnn1)c1nc-2c(Cl)[nH]1	1.2	0.07	
COC(=O)Nc1ccc2c(c1)NC(=O)C[C@H](C)/C=C/C[C@H](NC(=O)/C=C/c1cc(Cl)ccc1-n1cnnn1)c1nc-2c[nH]1	0.98	2	
COC(=O)Nc1ccc2c(c1)NC(=O)CCCCC[C@H](NC(=O)/C=C/c1cc(Cl)ccc1-n1cnnn1)c1nc-2c[nH]1			fraction unbound [4]: 0.038
CC[C@@H]1CCC[C@H](NC(=O)/C=C/c2cc(Cl)ccc2-n2cnnn2)c2nc(c[nH]2)-c2ccc(NC(=O)OC)cc2NC1=O	0.52		
COC(=O)Nc1ccc2c(c1)NC(=O)C(C)C/C=C/C[C@H](NC(=O)/C=C/c1cc(Cl)ccc1-n1cnnn1)c1nc-2c[nH]1 (single isomer, unassigned; diastereomer B)	1.2	2.7	
COC(=O)Nc1ccc2c(c1)NC(=O)C[C@@H](C)/C=C/C[C@H](NC(=O)c1c(F)cc(C)cc1F)c1nc-2c(Cl)[nH]1	2.7	12	Vd [10]: 0.3 L/kg; half-life [11]: 54 min; bioavailability [12]: 16%; AUC [13]: 0.991 µM·h; Papp B→A [1]: 18.9 ×10⁻⁶ cm/s; half-life [2]: 35 min; Papp A→B [3]: < 1.5 ×10⁻⁶ cm/s; clearance [14]: 6 mL/min/kg
COC(=O)Nc1ccc2c(c1)NC(=O)C(C)CCCC[C@H](NC(=O)/C=C/c1cc(Cl)ccc1-n1cnnn1)c1nc-2c[nH]1 (single isomer, unassigned; diastereomer B)	32	31	
COC(=O)Nc1ccc2c(c1)NC(=O)CCC(C)CC[C@H](NC(=O)/C=C/c1cc(Cl)ccc1-n1cnnn1)c1nc-2c[nH]1 (single isomer, unassigned; diastereomer B)	12	18	
COC(=O)Nc1ccc2c(c1)NC(=O)CC(C)CC[C@H](NC(=O)/C=C/c1cc(Cl)ccc1-n1cnnn1)c1nc-2c[nH]1 (single isomer, unassigned; diastereomer B)	31	35	
COC(=O)Nc1ccc2c(c1)NC(=O)CC/C=C/C[C@H](NC(=O)c1c(F)cc(C)cc1F)c1nc-2c(Cl)[nH]1	6.6	16	AUC [15]: 2.08 µM·h; Vd [16]: 0.4 L/kg; half-life [17]: 54 min; Papp B→A [1]: 20 ×10⁻⁶ cm/s; bioavailability [18]: 41%; clearance [19]: 5.6 mL/min/kg; half-life [2]: 17 min; Papp A→B [3]: < 1.5 ×10⁻⁶ cm/s
COC(=O)Nc1ccc2c(c1)NC(=O)C[C@H](C)CCC[C@H](NC(=O)/C=C/c1cc(Cl)ccc1-n1cnnn1)c1nc-2c[nH]1	27		
COC(=O)Nc1ccc2c(c1)NC(=O)C(C)CCCC[C@H](NC(=O)/C=C/c1cc(Cl)ccc1-n1cnnn1)c1nc-2c[nH]1 (single isomer, unassigned; diastereomer A)	5.3	6.5	
